Where “and” joins values, the source holds several entries; their conditions need not be identical. Equal entries are not always repeated. Structures can show the parent of a compound that is named as a salt.
Experiments:
[1] = target: T1, Human recombinant MMP-2 (Homo sapiens, UniProt P08253); experiment: In vitro MMP inhibition, Ki determination (fluorogenic substrate II); type: biochemical
T1 construct: made in house; host or cells: MMP-2-transfected p2AHT2 cells
T1 sequence (P08253 110-660): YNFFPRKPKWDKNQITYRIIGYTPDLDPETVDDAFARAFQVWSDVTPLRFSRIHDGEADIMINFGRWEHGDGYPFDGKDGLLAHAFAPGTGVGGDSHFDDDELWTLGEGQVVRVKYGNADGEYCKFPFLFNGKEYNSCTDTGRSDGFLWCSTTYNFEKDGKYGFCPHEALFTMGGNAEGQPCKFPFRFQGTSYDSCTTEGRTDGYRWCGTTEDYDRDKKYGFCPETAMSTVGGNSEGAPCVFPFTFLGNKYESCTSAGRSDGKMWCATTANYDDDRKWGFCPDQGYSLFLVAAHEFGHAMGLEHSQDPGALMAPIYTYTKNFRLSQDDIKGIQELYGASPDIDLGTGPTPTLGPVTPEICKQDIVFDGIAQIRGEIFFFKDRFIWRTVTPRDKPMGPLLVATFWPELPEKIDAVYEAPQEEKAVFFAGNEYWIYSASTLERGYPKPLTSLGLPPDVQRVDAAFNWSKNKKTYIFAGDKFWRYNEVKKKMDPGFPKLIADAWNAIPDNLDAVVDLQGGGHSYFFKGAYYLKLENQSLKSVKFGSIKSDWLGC
Procedure: Several hydroxamates and salts thereof were analyzed in in vitro assays to determine their ability to inhibit the MMP cleavage of peptide substrates. Inhibition (Ki) and IC50 constants were calculated from the assayed hydroxamate-MMP interactions.
Human recombinant MMP-1, MMP-2, MMP-9, MMP-13, and MMP-14 were used in this assay. All enzymes were prepared in Assignee's laboratories following usual laboratory procedures. Protocols for the preparation and use of these enzymes are available in the scientific literature. See, e.g., Enzyme Nomenclature (Academic Press, San Diego, Calif., 1992) (and the citations therein). See also, Frije et al., J. Biol. Chem., 26(24), 16766-73 (1994).
The MMP-2 proenzyme was purified by gelatin Sepharose chromatography from MMP-2-transfected p2AHT2 cells provided by Dr. Gregory Goldberg of Washington University (St. Louis, Mo.).
All MMPs were activated using 4-aminophenylmercuric acetate (“APMA”, Sigma Chemical, St. Louis, Mo.) or trypsin. MMP-9 also was activated using human recombinant MMP-3 (purified in Assignee's laboratory following standard cloning and purification techniques).
Two fluorogenic, methoxycoumarin-containing polypeptide substrates were used in the MMP inhibition assays:
MCA-ArgProLeuGlyLeuDpaAlaArgGluArgNH2 (II)
Here, “Dpa” is 3-(2,4-dinitrophenyl)-L-2,3-diaminopropionyl group, and “MCA” is 7-methoxycoumarin-4-yl acetyl. Substrate (I) was purchased from Baychem (Redwood City, Calif.), and substrate II was prepared Assignee's laboratory. Substrate I was used in the IC50 determination assays, while substrate II was used in the Ki determination assays. In the absence of MMP inhibitory activity, either substrate is cleaved at the Gly-Leu peptide bond. This cleavage separates the highly fluorogenic peptide from the 2,4-dinitrophenyl quencher, thus resulting in increase of fluorescent intensity.
The stock solutions of the assayed hydroxamates (or salts thereof) were prepared in 1% dimethyl sulfoxide (DMSO). These stock solutions were diluted in Buffer A (100 mM Tris-HCl, 100 mM NaCl, 10 mM CaCl2, 0.05% polyoxyethylene 23 lauryl ether, pH 7.5) to obtain solutions with different hydroxamate concentrations, i.e., assay solutions with different concentrations of the assayed MMP inhibitory compound. The experiment controls contained the same amount of Buffer A/DMSO as the assayed sample, but contained no hydroxamate (or salt thereof).
The assays from which the Ki determinations were made were performed as follows. The assayed hydroxamate samples were incubated in separate wells of untreated white polystyrene plates (Nunc Nalgene International, Rochester, N.Y.), and analyzed on a Tecan SpectraFlour Plus plate reader. The excitation wavelength was 330 nm, and the emission wavelength—420 nm. All samples (assayed hydroxamates and controls) were incubated in separate plate wells at room temperature for 1 hr in the presence of 4 μM of MMP substrate (II). In the absence of MMP inhibitory activity, substrate II was cleaved at the Gly-Leu bond resulting in an increase of relative fluorescence. Inhibition was observed as a reduced rate of this increase in relative fluorescence. The various hydroxamates were analyzed using a single low enzyme concentration with a single substrate concentration fixed at or below the Km. This protocol is a modification of method by Knight et al., FEBS Lett., 296(3), 263-266 (1992). Apparent inhibitory constants were determined by non-linear regression of reaction velocity as a function of inhibitor and enzyme concentration using Morrison's equation, as described by Kuzmic, Anal. Biochem. 286, 45-50 (2000). […] Since the substrate concentration was chosen to be at or below the Km, the apparent Ki's from this analysis were reported as Ki's without correction for the influence of substrate.

[2] = target: T2, Human recombinant MMP-9 (Homo sapiens, UniProt P14780); experiment: In vitro MMP inhibition, IC50 determination (fluorogenic substrate I); type: biochemical
T2 construct: made in house; host or cells: MMP-9-transfected HT1080 cells (spent media)
Procedure, shortened: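 Reduction in fluorescence (328 nm excitation, 415 nm emission) from cleavage of 4 μM quenched peptide substrate I, measured at room temperature against inhibitor concentration, gave IC50. Enzyme: trypsin- or APMA-activated MMP-9 purified from transfected HT1080 medium; buffer 100 mM Tris, 100 mM NaCl, 10 mM CaCl2, pH 7.5.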

[3] = substrate (II) 4 μM, 1 hr room temperature, apparent Ki, values in parenthesis
[4] = substrate (I) 4 μM, room temperature, values not in parenthesis

T2 sequence (P14780 107-707 limits assumed): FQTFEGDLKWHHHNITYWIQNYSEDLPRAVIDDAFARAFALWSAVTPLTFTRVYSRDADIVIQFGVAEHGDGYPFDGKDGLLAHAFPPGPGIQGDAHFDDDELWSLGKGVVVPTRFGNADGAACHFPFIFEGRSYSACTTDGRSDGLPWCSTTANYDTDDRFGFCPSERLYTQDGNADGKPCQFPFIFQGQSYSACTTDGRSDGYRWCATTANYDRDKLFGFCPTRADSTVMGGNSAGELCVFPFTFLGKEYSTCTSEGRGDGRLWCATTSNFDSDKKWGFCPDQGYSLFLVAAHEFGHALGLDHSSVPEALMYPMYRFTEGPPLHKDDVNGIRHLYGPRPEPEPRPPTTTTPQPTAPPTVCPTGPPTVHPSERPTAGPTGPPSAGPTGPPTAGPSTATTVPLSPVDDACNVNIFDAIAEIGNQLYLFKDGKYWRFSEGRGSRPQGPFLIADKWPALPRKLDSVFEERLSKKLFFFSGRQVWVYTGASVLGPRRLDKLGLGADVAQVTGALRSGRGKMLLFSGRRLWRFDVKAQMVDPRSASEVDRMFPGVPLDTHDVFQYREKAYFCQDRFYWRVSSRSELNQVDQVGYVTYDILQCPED

Compound | Ki ([1]; value in parentheses) [nM] | Ki ([1]; value in parenthesis) [nM] | also measured
NC(=O)c1cccc(OCCOc2ccc(S(=O)(=O)C3(C(=O)NO)CCOCC3)cc2)c1 [Example 54] |  |  | Ki [1, 3]: 64.8 nM
O=C(NO)C1(S(=O)(=O)c2ccc(OCCCc3cccc(-c4ccc5c(c4)OCO5)c3)cc2)CCOCC1 [Example 628] | 2750 |  | IC50 ([2]; value outside parentheses): 1750 nM
O=C(NO)C1(S(=O)(=O)c2ccc(OCCCc3cccc(-c4ccccn4)c3)cc2)CCOCC1 [Example 148] |  | 213 | 
O=C(NO)C1(S(=O)(=O)c2ccc(OCCCc3cccc(-c4cccnc4)c3)cc2)CCOCC1 [Example 150] |  | 159 | IC50 ([2]; value outside parenthesis): 530 nM
O=C(NO)C1(S(=O)(=O)c2ccc(OCCCc3nc(-c4ccccc4)no3)cc2)CCOCC1 [Example 584] | 20.8 |  | 
O=C(NO)C1(S(=O)(=O)c2ccc(OCCCc3cccc(-c4ccc5ccccc5c4)c3)cc2)CCOCC1 [Example 629] | 1020 |  | 
O=C(NO)C1(S(=O)(=O)c2ccc(OCCCc3cccc(-c4coc5ccccc45)c3)cc2)CCOCC1 [Example 634] | 983 |  | 
Cc1ccc(-c2cccc(CCOc3ccc(S(=O)(=O)C4(C(=O)NO)CCOCC4)cc3)c2)cc1 [Example 127] |  | 2160 | IC50 ([2]; value outside parenthesis): > 10000 nM
COCCN1CCC(C(=O)NO)(S(=O)(=O)c2ccc(OCCCc3cc(-c4ccc(F)cc4F)cs3)cc2)CC1 [Example 47, 4-[(4-{3-[4-(2,4-difluorophenyl)thien-2-l]propoxy}phenyl)sulfonyl]-N-hydroxy-1-(2-methoxyethyl)piperidine-4-carboxamide Hydrochloride] |  |  | Ki [1, 3]: 19.2 nM and 46.5 nM
O=C(NO)C1(S(=O)(=O)c2ccc(OCCCc3cccc(-c4cccc5ccccc45)c3)cc2)CCOCC1 [Example 638] | 8120 |  | 
O=C(NO)C1(S(=O)(=O)c2ccc(OCCc3cccc(-c4ccc(F)cc4)c3)cc2)CCOCC1 [Example 123] |  | 793 | IC50 ([2]; value outside parenthesis): > 10000 nM
CCN1CCC(C(=O)NO)(S(=O)(=O)c2ccc(OCCCc3cccc(-c4ccccc4)c3)cc2)CC1 [Example 46] |  |  | IC50 [2, 4]: 1970 nM; Ki [1, 3]: 786 nM
O=C(NO)C1(S(=O)(=O)c2ccc(OCCCc3nc(-c4ccc(OC(F)(F)F)cc4)no3)cc2)CCOCC1 [Example 31, tetrahydro-N-hydroxy-4-[[4-[3-[3[4-(trifluoromethoxy)phenyl]-1,2,4-oxadiazol-5-yl]propoxy]phenyl]sulfonyl]-2H-pyran-4-carboxamide] |  |  | IC50 [2, 4]: 5650 nM; Ki [1, 3]: 413 nM
O=C(NCCOc1ccc(S(=O)(=O)C2(C(=O)NO)CCOCC2)cc1)c1cc2ccccc2[nH]1 [Example 599] | 0.38 |  | IC50 ([2]; value outside parentheses): 11.6 nM
Cc1cc(OC(F)(F)F)ccc1NC(=O)CCCOc1ccc(S(=O)(=O)C2(C(=O)NO)CCOCC2)cc1 [Example 229] |  | 10.4 | IC50 ([2]; value outside parenthesis): 294 nM
O=C(NO)C1(S(=O)(=O)c2ccc(OCCc3cccc(-c4ccccc4F)c3)cc2)CCOCC1 [Example 115] |  | 807 | IC50 ([2]; value outside parenthesis): > 10000 nM
O=C(NO)C1(S(=O)(=O)c2ccc(OCCCc3cccc(-c4ccc(F)cc4)c3)cc2)CCN(C2CC2)CC1 [Example 139] |  | 1410 | IC50 ([2]; value outside parenthesis): 4510 nM
O=C(NO)C1(S(=O)(=O)c2ccc(OCCCc3cccc(-c4csc5ccccc45)c3)cc2)CCOCC1 [Example 631] | 4960 |  | 
O=C(CCCOc1ccc(S(=O)(=O)C2(C(=O)NO)CCOCC2)cc1)Nc1cccc(I)c1 [Example 570] | 10.1 |  | 
COCCN1CCC(C(=O)NO)(S(=O)(=O)c2ccc(OCCCc3nc(-c4ccc(OC(F)(F)F)cc4)no3)cc2)CC1 [Example 190] |  | 283 | IC50 ([2]; value outside parenthesis): 1740 nM
O=C(COc1ccc(S(=O)(=O)C2(C(=O)NO)CCOCC2)cc1)c1cccc(-c2ccccc2)c1 [Example 563] | 70.1 |  | 

Compound | Ki ([1]; value in parentheses) [nM] | Ki ([1]; value in parenthesis) [nM] | also measured
COc1ccc(/C(C#N)=C/CCCOc2ccc(S(=O)(=O)C3(C(=O)NO)CCN(C4CC4)CC3)cc2)cc1 [Example 233] |  | 60.2 | IC50 ([2]; value outside parenthesis): 832 nM
O=C(NO)C1(S(=O)(=O)c2ccc(OCCCc3cccc(-c4ccc(C(F)(F)F)cc4)c3)cc2)CCOCC1 [Example 625] | 6860 |  | 
O=C(NO)C1(S(=O)(=O)c2ccc(OCCCc3cccc(-c4cc5ccccc5s4)c3)cc2)CCOCC1 [Example 633] | 4580 |  | 
CC(C)c1ccc(-c2cccc(CCCOc3ccc(S(=O)(=O)C4(C(=O)NO)CCOCC4)cc3)c2)cc1 [Example 160] |  | > 10000 | 
C=Cc1ccc(-c2cccc(CCCOc3ccc(S(=O)(=O)C4(C(=O)NO)CCOCC4)cc3)c2)cc1 [Example 635] | 4680 |  | 
O=C(NO)C1(S(=O)(=O)c2ccc(OCCCc3cccc(-c4ccc5c(c4)OCCO5)c3)cc2)CCOCC1 [Example 627] | 3950 |  | 
O=C(NO)C1(S(=O)(=O)c2ccc(OCCCc3cccc(-c4ccc(OC(F)(F)F)cc4)c3)cc2)CCOCC1 [Example 147] |  | > 10000 | 
O=C(NO)C1(S(=O)(=O)c2ccc(OCCCc3cccc(-c4ccc(F)cc4)c3)cc2)CCOCC1 [Example 39] |  |  | Ki [1, 3]: 1640 nM
Cc1ccccc1-c1cccc(CCCOc2ccc(S(=O)(=O)C3(C(=O)NO)CCOCC3)cc2)c1 [Example 164] |  | 978 | 
O=C(NO)C1(S(=O)(=O)c2ccc(OCCCc3cccc(-c4ccccc4O)c3)cc2)CCOCC1 [Example 636] | 527 |  | 
O=C1Nc2ccc(-c3noc(CCCOc4ccc(S(=O)(=O)C5(C(=O)NO)CCN(C6CC6)CC5)cc4)n3)cc21 [Example 142] |  | 96.4 | 
O=C(NO)C1(S(=O)(=O)c2ccc(OCCCc3cccc(-c4ccncc4)c3)cc2)CCOCC1 [Example 149] |  | 84.1 | 
O=C(NO)C1(S(=O)(=O)c2ccc(OCCCc3nc(-c4cccnc4)no3)cc2)CCOCC1 [Example 578] | 72.1 |  | 
O=C(NO)C1(S(=O)(=O)c2ccc(OCCCc3cccc(-c4ccco4)c3)cc2)CCOCC1 [Example 97] |  | 295 | 
O=C(NO)C1(S(=O)(=O)c2ccc(OCCCc3cccc(-c4ccccc4Cl)c3)cc2)CCOCC1 [Example 162] |  | 2370 | 
Cc1ccc(-c2cccc(CCCOc3ccc(S(=O)(=O)C4(C(=O)NO)CCOCC4)cc3)c2)cc1C [Example 165] |  | > 10000 | 
Cc1ccc(-c2cccc(CCCOc3ccc(S(=O)(=O)C4(C(=O)NO)CCOCC4)cc3)c2)s1 [Example 639] | 505 |  | 
O=C(NO)C1(S(=O)(=O)c2ccc(OCCCc3cccc(-n4ccnc4)c3)cc2)CCOCC1 [Example 574] | 112 |  | 
O=C(NO)C1(S(=O)(=O)c2ccc(OCCCc3cncc(Br)c3)cc2)CCOCC1 [Example 522] | 32.1 |  | 
CCN1CCC(C(=O)NO)(S(=O)(=O)c2ccc(OCCCSc3nc4ccccc4s3)cc2)CC1 [Example 591] |  |  | IC50 ([2]; value outside parentheses): 12 nM

From US20040024024A1, “Aromatic sulfone hydroxamates and their use as protease inhibitors” (priority 2001, published 2004)
